Reference: article PMC10177510, “A Multicenter, Open-Label, Phase I/II Study of FN-1501 in Patients with Advanced Solid Tumors” (Cancers, 2023)
Values after ≈ are worked out from the molar mass of the structure shown.

What was measured:
MV-4-11 xenograft = details: preclinical, no reference given; cited from earlier work
MOLM-13 = tested on: MOLM-13; parameters: method as in data on file, Fosun Pharma; details: ref data on file, Fosun Pharma; cited from earlier work
[1] = Plasma pharmacokinetics of FN-1501 and metabolite M3 in patients (LC/MS-MS, noncompartmental); type: in vivo, human; details: for AUClast / AUC∞ / CL / Cmax / MRT∞ / Vss / Vz / t1/2 / tmax: mean; for Clearance: discussion; for Css,u: 260 mg
Protocol: For PK assessment, blood samples were collected pre-dose and 0.083, 0.25, 0.5, 1, 2, 4, 6, 8, 12, 24, and 48 h post-dose on Cycle 1, Day 1, and pre-dose on Cycle 2, Day 1. Plasma concentrations of FN-1501 and its metabolite M3 were analyzed at KCAS in Shawnee, KS, using a validated liquid chromatography/tandem mass spectrometry method. Primary pharmacokinetic (PK) endpoints were derived from FN-1501 and M3 concentration–time profiles and were analyzed using standard noncompartmental methods of analysis (Phoenix version 8).

Unbound fraction = type: in vitro ADME
MV-4-11 = details: ref data on file, Fosun Pharma; cited from earlier work
MOLM-13 xenograft = details: preclinical, no reference given; cited from earlier work

For `CN1CCN(Cc2ccc(NC(=O)c3[nH]ncc3Nc3ncnc4[nH]ccc34)cc2)CC1` [FN-1501], the “Dose at which tumor growth reached stasis” value (MV-4-11 xenograft) is listed as 5 mg/kg, the IC50 (MOLM-13) is listed as 5.2 ng/mL (≈ 12.1 nM) and the AUClast ([1]; 2.5 mg IV) is listed as 29.4 ± 11.9 ng·h/mL. For the same compound, the “AUC∞” value ([1]; 2.5 mg IV) was 32.4 ± 13.1 ng·h/mL, the CL ([1]; 2.5 mg IV) was 85.1 ± 26.8 L/h and the Cmax ([1]; 2.5 mg IV) was 12.0 ± 1.42 ng/mL. For the same compound, the “MRT∞” value ([1]; 2.5 mg IV) was 11.7 ± 4.59 h, the Vss ([1]; 2.5 mg IV) was 913 ± 206 L and the Vz ([1]; 2.5 mg IV) was 1510 ± 421 L. For the same compound, the t1/2 ([1]; 2.5 mg IV) was 12.8 ± 3.5 h, the tmax ([1]; 2.5 mg IV) was 1.2 ± 0.10 h and the AUClast ([1]; 5 mg IV) was 52.1 ± 18.2 ng·h/mL. For the same compound, the “AUC∞” value ([1]; 5 mg IV) was 56.5 ± 18.2 ng·h/mL, the CL ([1]; 5 mg IV) was 93.9 ± 25.2 L/h and the Cmax ([1]; 5 mg IV) was 25.5 ± 17.3 ng/mL. For the same compound, the “MRT∞” value ([1]; 5 mg IV) was 13.7 ± 3.74 h, the Vss ([1]; 5 mg IV) was 1320 ± 619 L and the Vz ([1]; 5 mg IV) was 2570 ± 932 L. It also gave a t1/2 ([1]; 5 mg IV) of 18.6 ± 2.34 h, a tmax ([1]; 5 mg IV) of 1.1 ± 0.02 h and an AUClast ([1]; 10 mg IV) of 119 ± 32.6 ng·h/mL. The “AUC∞” value ([1]; 10 mg IV) was 129 ± 41.3 ng·h/mL, the CL ([1]; 10 mg IV) was 84.7 ± 32.4 L/h and the Cmax ([1]; 10 mg IV) was 36.9 ± 17.5 ng/mL. The “MRT∞” value ([1]; 10 mg IV) was 12.5 ± 2.84 h, the Vss ([1]; 10 mg IV) was 1110 ± 664 L and the Vz ([1]; 10 mg IV) was 1720 ± 925 L. For the same compound, the t1/2 ([1]; 10 mg IV) was 13.7 ± 2.68 h, the tmax ([1]; 10 mg IV) was 1.2 ± 0.15 h and the AUClast ([1]; 15 mg IV) was 138 ± 10.8 ng·h/mL. For the same compound, the “AUC∞” value ([1]; 15 mg IV) was 153 ± 8.45 ng·h/mL, the CL ([1]; 15 mg IV) was 98.5 ± 5.29 L/h and the Cmax ([1]; 15 mg IV) was 35.6 ± 2.15 ng/mL. For the same compound, the “MRT∞” value ([1]; 15 mg IV) was 16.1 ± 2.64 h, the Vss ([1]; 15 mg IV) was 1600 ± 331 L and the Vz ([1]; 15 mg IV) was 2370 ± 536 L. It also gave a t1/2 ([1]; 15 mg IV) of 16.6 ± 3 h, a tmax ([1]; 15 mg IV) of 1.2 ± 0.14 h and an AUClast ([1]; 22.5 mg IV) of 251 ± 87.8 ng·h/mL. For the same compound, the “AUC∞” value ([1]; 22.5 mg IV) was 239 ± 55.4 ng·h/mL, the CL ([1]; 22.5 mg IV) was 96.9 ± 22.5 L/h and the Cmax ([1]; 22.5 mg IV) was 65.8 ± 24.5 ng/mL. The “MRT∞” value ([1]; 22.5 mg IV) was 16.4 ± 1.01 h, the Vss ([1]; 22.5 mg IV) was 1600 ± 466 L and the Vz ([1]; 22.5 mg IV) was 2570 ± 663 L. For the same compound, the t1/2 ([1]; 22.5 mg IV) was 18.3 ± 0.49 h, the tmax ([1]; 22.5 mg IV) was 1.2 ± 0.19 h and the AUClast ([1]; 30 mg IV) was 297 ± 55.8 ng·h/mL. The “AUC∞” value ([1]; 30 mg IV) was 341 ± 47.1 ng·h/mL, the CL ([1]; 30 mg IV) was 89.1 ± 13.3 L/h and the Cmax ([1]; 30 mg IV) was 87.8 ± 37.5 ng/mL. The “MRT∞” value ([1]; 30 mg IV) was 13.4 ± 8.49 h, the Vss ([1]; 30 mg IV) was 1130 ± 619 L and the Vz ([1]; 30 mg IV) was 1500 ± 786 L. The t1/2 ([1]; 30 mg IV) was 12.4 ± 7.43 h, the tmax ([1]; 30 mg IV) was 1.1 ± 0.11 h and the AUClast ([1]; 40 mg IV) was 437 ± 77.2 ng·h/mL. The “AUC∞” value ([1]; 40 mg IV) was 499 ± 122 ng·h/mL, the CL ([1]; 40 mg IV) was 83.6 ± 18.6 L/h and the Cmax ([1]; 40 mg IV) was 128 ± 41.9 ng/mL. For the same compound, the “MRT∞” value ([1]; 40 mg IV) was 18.3 ± 6.19 h, the Vss ([1]; 40 mg IV) was 1450 ± 185 L and the Vz ([1]; 40 mg IV) was 2160 ± 195 L. It also gave a t1/2 ([1]; 40 mg IV) of 18.7 ± 5.68 h, a tmax ([1]; 40 mg IV) of 1.1 ± 0.044 h and an AUClast ([1]; 54 mg IV) of 773 ± 180 ng·h/mL. The “AUC∞” value ([1]; 54 mg IV) was 868 ± 181 ng·h/mL, the CL ([1]; 54 mg IV) was 63.9 ± 12.4 L/h and the Cmax ([1]; 54 mg IV) was 323 ± 55.6 ng/mL. For the same compound, the “MRT∞” value ([1]; 54 mg IV) was 16.9 ± 7.34 h, the Vss ([1]; 54 mg IV) was 1080 ± 516 L and the Vz ([1]; 54 mg IV) was 1820 ± 740 L. For the same compound, the t1/2 ([1]; 54 mg IV) was 19.6 ± 6.44 h, the tmax ([1]; 54 mg IV) was 1.1 ± 0.05 h and the AUClast ([1]; 72 mg IV) was 742 ± 275 ng·h/mL. For the same compound, the “AUC∞” value ([1]; 72 mg IV) was 823 ± 292 ng·h/mL, the CL ([1]; 72 mg IV) was 94.2 ± 28.8 L/h and the Cmax ([1]; 72 mg IV) was 161 ± 67.7 ng/mL. The “MRT∞” value ([1]; 72 mg IV) was 16.8 ± 1.12 h, the Vss ([1]; 72 mg IV) was 1580 ± 489 L and the Vz ([1]; 72 mg IV) was 2370 ± 833 L. The t1/2 ([1]; 72 mg IV) was 17.2 ± 1.58 h, the tmax ([1]; 72 mg IV) was 1.3 ± 0.24 h and the AUClast ([1]; 96 mg IV) was 1420 ± 236 ng·h/mL. The “AUC∞” value ([1]; 96 mg IV) was 1650 ± 229 ng·h/mL, the CL ([1]; 96 mg IV) was 59.1 ± 8.20 L/h and the Cmax ([1]; 96 mg IV) was 494 ± 289 ng/mL. For the same compound, the “MRT∞” value ([1]; 96 mg IV) was 15.4 ± 6.58 h, the Vss ([1]; 96 mg IV) was 921 ± 425 L and the Vz ([1]; 96 mg IV) was 1410 ± 682 L. The t1/2 ([1]; 96 mg IV) was 16.1 ± 6.28 h, the tmax ([1]; 96 mg IV) was 1.1 ± 0.13 h and the AUClast ([1]; 128 mg IV) was 1730 ± 850 ng·h/mL. For the same compound, the “AUC∞” value ([1]; 128 mg IV) was 1980 ± 1120 ng·h/mL, the CL ([1]; 128 mg IV) was 79.9 ± 4.21 L/h and the Cmax ([1]; 128 mg IV) was 533 ± 344 ng/mL. For the same compound, the “MRT∞” value ([1]; 128 mg IV) was 18.1 ± 5.53 h, the Vss ([1]; 128 mg IV) was 1320 ± 473 L and the Vz ([1]; 128 mg IV) was 1790 ± 366 L. The t1/2 ([1]; 128 mg IV) was 17.8 ± 7.00 h, the tmax ([1]; 128 mg IV) was 1.1 ± 0.11 h and the AUClast ([1]; 170 mg IV) was 3340 ± 1500 ng·h/mL. For the same compound, the “AUC∞” value ([1]; 170 mg IV) was 3760 ± 1980 ng·h/mL, the CL ([1]; 170 mg IV) was 56.5 ± 31.5 L/h and the Cmax ([1]; 170 mg IV) was 955 ± 330 ng/mL. For the same compound, the “MRT∞” value ([1]; 170 mg IV) was 15.8 ± 7.89 h, the Vss ([1]; 170 mg IV) was 757 ± 218 L and the Vz ([1]; 170 mg IV) was 1120 ± 419 L. The t1/2 ([1]; 170 mg IV) was 15.0 ± 3.64 h, the tmax ([1]; 170 mg IV) was 1.3 ± 0.26 h and the Clearance ([1]; 170 mg) was 50 L/h. The AUClast ([1]; 226 mg IV) was 5620 ± 1390 ng·h/mL, the “AUC∞” value ([1]; 226 mg IV) was 6070 ± 1670 ng·h/mL and the CL ([1]; 226 mg IV) was 39.4 ± 0.17 L/h. The Cmax ([1]; 226 mg IV) was 1180 ± 232 ng/mL, the “MRT∞” value ([1]; 226 mg IV) was 15.2 ± 3.92 h and the Vss ([1]; 226 mg IV) was 569 ± 30.8 L. It also gave a Vz ([1]; 226 mg IV) of 787 ± 139 L, a t1/2 ([1]; 226 mg IV) of 14.2 ± 2.2 h and a tmax ([1]; 226 mg IV) of 1.2 ± 0.02 h. The Clearance ([1]; 226 mg) was 38 L/h, the “Css,u” value ([1]; 48 h dosing interval) was 37 ng/mL and the “Css,u” value ([1]; 72 h dosing interval) was 25 ng/mL. The “AUC increase with dose” value ([1]; 2.5 to 226 mg) was “greater than dose-proportional”, the “Cmax increase with dose” value ([1]; 2.5 to 226 mg) was “roughly dose-proportional” and the “Drug concentration at end of dosing interval” value ([1]; 48 h post-dose) was “approximately 20 ng/mL”. The Unbound fraction (Unbound fraction) was 30%, the IC50 (MV-4-11) was 2.6 ng/mL (≈ 6.03 nM) and the “Dose at which tumor growth reached stasis” value (MOLM-13 xenograft) was 20 mg/kg.
